No end group written: not given here.
Key:
[1] = tested on: anti-TAL6 monoclonal antibody L6; experiment: ELISA epitope mapping: detection of coated TAL6 peptides by L6 mAb; type: binding; conditions: plate coated with peptide 10 μg/ml; antibody 1:500
Experimental: FIG. 1 includes (A) a scheme showing the overlapping peptides that cover the extracellular domains of TAL6: EL1 (residues 31 to 46 of SEQ ID NO: 1); EL2 (residues 114 to 164 of SEQ ID NO: 1); EP1 (SEQ ID NO: 4); EP2 (SEQ ID NO: 17); EP3 (SEQ ID NO: 18); and EP4 (SEQ ID NO: 19); and (B) a graph showing binding of the peptides to anti-TAL6 antibodies. A 96-well plate was coated with the indicated peptides (10 μg/ml) in each well. Three anti-TAL6 antibodies (1:500) were used to detect these peptides. CP: Control peptide.
FIG. 10 is a graph showing identification of residues in EP1 that are important for antibody binding using alanine scanning. The amino acid residues in EPI were individually replaced with alanine to generate EP1-1 to EP1-20 peptides. Monoclonal antibody L6 was used to detect these peptides. EP1 is a positive control and EP-3 is a negative control.
Three purified anti-TAL6 monoclonal antibodies (1F4, 9C7, L6) were used to detect the surface expression TAL6 on EL-4 (EL-4/L6) cells. See Chang et al., Int J Cancer, 116 (2005) 243-252. […] To further map the antibody-binding epitopes, five peptides (EL1 and EP1-4) that cover the EL1 and EL2 extracellular loops were used to determine the linear B cell epitopes using ELISA. […]
(§1) For antibody epitope mapping, L6, 9C7 and 1F4 Mabs were assayed by ELISA. […] Absorbance was measured at 450 nm.

native TAL6 = molecular target: T1, native TAL6 (Homo sapiens, UniProt P30408); experiment: Anti-TAL6 antibody in sera of immunized mice, cell-based ELISA; type: in vivo, C57BL/6 mice; conditions: formulated with IFA/Th, sera 1:500, EL4-L6 O.D. minus EL4 O.D.
T1 construct: expressed in transfected cells; host or cells: EL-4 (mouse lymphoma) cells expressing TAL6 (EL-4/L6, EL4-L6)
T1 sequence (P30408 1-202): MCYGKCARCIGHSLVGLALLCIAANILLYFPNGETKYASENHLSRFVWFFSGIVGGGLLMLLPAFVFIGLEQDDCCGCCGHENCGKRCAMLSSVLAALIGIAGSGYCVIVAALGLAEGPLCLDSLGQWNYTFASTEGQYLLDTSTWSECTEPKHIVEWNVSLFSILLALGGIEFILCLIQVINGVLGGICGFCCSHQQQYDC
Experimental: (§2) FIG. 2 is a set of graphs showing that immunization of WT mice with the EP1 peptide induced anti-tumor immunity. EP1 or positive control MCF-7/TAL6 cells formulated with incomplete Freund's adjuvant (IFA) were administered to mice twice at a two-week interval. (A) Anti-TAL6 antibody titers were determined by using cell-based ELISA. Antigen-specific antibody was calculated as: EL4-L6 (O.D.)−EL4 (O.D.). (B) TAL6-specific ADCC was determined in a Cr^51 release assay. The lysis percentage was calculated as immunized serum (lysis %)−naïve serum (lysis %). ***P<0.001.
To test whether the EP1 peptide could raise antibodies that bind native TAL6, the EP1 peptide or MCF-7/L6 cells (as positive control) were formulated with IFA/Th and administered to C57BL/6 mice. Sera from immunized mice were collected and the anti-TAL6 antibody titers were analyzed using cell-based ELISA. […] See FIG. 2, A. Whether EP1 immunization could induce antibody-dependent cellular cytotoxicity (ADCC) was also investigated. Sera (1:100) from mice immunized with either EP1 or MCF-7/L6 cells could kill TAL6-expressed EL4 (EL4/L6) cells but not EL4 parental cells (61.82%±6.12% v.s. 0.36%±0.96% and 65.54%±1.77% v.s. 11.41%±3.094%). […]
as §1

[2] = tested on: TAL6-expressed EL4 (EL4/L6) cells; experiment: ADCC Cr51 release assay with sera of immunized mice, EL4/L6 target cells; type: cell-based; conditions: C57BL/6 mice, IFA; sera 1:100; immunized serum lysis % minus naïve serum lysis %
Experimental: as §2
FIG. 6 is a set of graphs showing that immunization with PELC/CpG/Th-A2-5-EP1 induced high levels of humoral and cellular immunity in HLA-A2 mice. The Th-A2-5-EP1 peptide was formulated with different adjuvants. […] (A) IFN-γ-secreting cells were determined using IFN-γ ELISpot assay. Results are expressed as mean SD. ***P<0.001. […] (D) TAL6-specific ADCC was determined by Cr^51 release assay. The lysis percentage was calculated as: immunized serum (lysis %)—naïve serum (lysis %) ***P<0.001.
(§3) To test whether the EP1 peptide could raise antibodies that bind native TAL6, the EP1 peptide or MCF-7/L6 cells (as positive control) were formulated with IFA/Th and administered to C57BL/6 mice. Sera from immunized mice were collected and the anti-TAL6 antibody titers were analyzed using cell-based ELISA. […]

EL4 parental cells = experiment: ADCC Cr51 release assay with sera of immunized mice, EL4 parental target cells; type: cell-based; conditions: C57BL/6 mice, IFA; sera 1:100; immunized serum lysis % minus naïve serum lysis %
Experimental: as §2, §3
(§4) Mice spleen cells were used as effector cells for the ADCC assay. […] After 6 hr, supernatants were harvested to measure the radioactivity using a gamma counter. Spontaneous release was measured in wells containing target cells alone. […] Percent cytotoxicity was determined according to the formula: percent lysis=100×(experimental ^51Cr release−spontaneous ^51Cr release)/(maximal ^51Cr release−spontaneous ^51Cr release).

B16-L6 cells = experiment: Immunization then subcutaneous B16-L6 tumor challenge in WT mice; type: in vivo, C57BL/6 mice
Experimental: EP1 or positive control MCF-7/TAL6 cells formulated with incomplete Freund's adjuvant (IFA) were administered to mice twice at a two-week interval. (A) At 7 days after the final immunization, B16-L6 (2×10^4) cells were inoculated subcutaneously. Tumor growth was monitored 2-3 times per week. (B) The survival rate of the mice was determined.
Mice were immunized with 50 mg of EP1 formulated with the indicated adjuvants twice at a 14-day interval. (A) At 7 days after the second immunization, 2×10^4 of B16/TAL6 cells were injected subcutaneously. Tumor growth was monitored 2-3 times per week. Results obtained are expressed as mean SD (n=6). (B) Mouse survival rate was monitored. Results are expressed as means ±SD (*P<0.05.**P<0.01).
See FIG. 2, B. To investigate if the EP1 peptide could induce anti-tumor activity, mice were immunized with EP1 peptide and then challenged with B16-L6 cells (2×10^4/mouse) at 7 days after the final immunization.
The EP1 peptide was formulated with different adjuvants. Mice were immunized with 50 mg of the formulations twice at a 14-day interval. At 7 days after the second immunization, 2×10^4 B16/TAL6 cells were injected subcutaneously to the mice. Tumor growth was monitored 2-3 times per week.
HLA-A2 Tg mice were injected subcutaneously (s.c.) twice at a 2-week interval with peptide formulated in IFA, alum, DOTAP liposome, PELC nanoparticles, or TLR9 agonist CpG. Seven days after the second immunization, the B16-L6-A2 or B16-L6 cells (2×10^4) were inoculated s.c. on the opposite site of the peptide injection. Tumor sizes were measure 2-3 times per week. Tumor volume was calculated using the formula: tumor volume=length×width×width/2.

[3] = tested on: lung cancer cell line H2981; experiment: ADCC Cr51 release assay with sera of immunized mice, H2981 target cells; type: cell-based, human; conditions: formulated with PELC/CpG; sera collected at 6 weeks
Experimental: (§5) FIG. 9 is a set of graphs showing that peptide formulated with different adjuvants induced antibody-dependent cellular cytotoxicity (ADCC) against human cancer cells. Mice were immunized with peptide Th-EP1-A2-5 in various adjuvants twice at a two-week interval. Sera were collected at 6 weeks for ADCC assay. (A) Lung cancer cell line H2981 was used as a target. (B) Human breast cancer cell lines MCF7 and MCF7-TAL6 were used as targets. TAL6-specific ADCC was determined by Cr^51 release assay. The lysis percentage was calculated as: immunized serum (lysis %)−naïve serum (lysis %) ***P<0.001.
(§6) Mice were immunized with Th-A2-5-EP1 formulated with different adjuvants twice at a two-week interval. Sera was collected at 6 weeks for ADCC assay. […] TAL6-specific ADCC was determined by Cr51 release assay. The lysis percentage was calculated by subtracting the […].
as §4

[4] = tested on: breast cancer cell lines MCF7 and MCF7-TAL6; experiment: ADCC Cr51 release assay with sera of immunized mice, MCF7 and MCF7-TAL6 target cells; type: cell-based, human; conditions: formulated with PELC/CpG; sera collected at 6 weeks
Experimental: as §5, §6, §4

Sequence | detection of the peptide by L6 mAb (ELISA) [1] | anti-TAL6 antibody amount in sera versus vehicle (PBS) (native TAL6) | ADCC lysis of EL4/L6 cells [2] | ADCC lysis of EL4 parental cells (EL4 parental cells) | tumor growth (B16-L6 cells; formulated with IFA, immunized twice, B16-L6 2×10^4/mouse s.c. 7 days after final immunization) | anti-tumor effects (tumor growth, survival) (B16-L6 cells; formulated with PELC/CpG, 50 mg twice at 14-day interval, 2×10^4 B16/TAL6 cells s.c.) | anti-tumor effect (tumor growth) (B16-L6 cells; formulated with different adjuvants, 50 mg twice at 14-day interval, 2×10^4 B16/TAL6 cells s.c.) | ADCC cytotoxicity, rank among adjuvant formulations [3] | ADCC cytotoxicity, rank among adjuvant formulations [4]
GLAEGPLCLDSLGQWNYTFA [EP1] | could be detected by L6 mAb | significantly higher amount of antibody | 61.82%±6.12% | 0.36%±0.96% | significantly inhibited tumor growth | induced anti-tumor effects | exhibited an anti-tumor effect |  | 
AKFVAAWTLKAAAAAALLMLLPAFVAAAGLAEGPLCLDSLGQWNYTFA [Th-A2-5-EP1] |  |  |  |  |  |  |  | strongest cytotoxicity | strongest cytotoxicity

From patent US10995126B2, “Immunogenic peptide containing a b cell epitope of tumor associated antigen L6” (National Health Research Institutes, priority 2016, dated 2021)
